# Test results as given in PMC8536575, “Acute effects of the imidacloprid metabolite desnitro-imidacloprid on human nACh receptors relevant for neuronal signaling” (Archives of Toxicology, 2021).
# What was measured:
# mice = conditions: ref Chao and Casida [1997], Tomizawa et al. [2000], [2001]; cited from earlier work
# human α4β4 nAChR = target: T1, human α4β4 nAChR (Homo sapiens, UniProt P30926+P43681); assay: Two-electrode voltage-clamp recordings, Xenopus laevis oocytes expressing human α4β4 nAChR; type: cell-based
# T1 construct: expressed in transfected cells; host or cells: Xenopus laevis oocytes, mRNA injection, 3.33 ng α4 and 3.33 ng β4
# Description: The human α7 nAChR subunit was cloned in the pCDNA3.1 vector.
# For the generation of the mRNA for injection, the plasmid DNAs of α3, α4, β2, and β4 were linearized with the NotI restriction endonuclease (New England Biolabs) and the plasmid DNA of α7 was linearized with the XbaI restriction endonuclease (New England Biolabs). The mRNAs of α3, α4, β2, and β4 were generated by in vitro transcription using the mMESSAGE mMACHINE SP6 Transcription Kit (Invitrogen). For the generation of α7 mRNA, the mMESSAGE mMACHINE T7 Transcription Kit (Invitrogen) was used. For the separation of the DNA and mRNA, a phenol–chloroform extraction (Chomczynski and Sacchi [2006]) was performed. The mRNA was then obtained by ethanol precipitation from the aqueous phase; for quantification, the BioPhotometer (Eppendorf) was used.
# The recordings of human α7, α3β4, α4β2, and α4β4 nAChRs expressed in Xenopus laevis oocytes (EcoCyte Bioscience) were performed in two-electrode voltage-clamp mode using the Roboocyte2 system and the corresponding software (version 1.4.1; Multi Channel Systems MCS). Prior to the recordings, the oocytes were maintained at 19 °C in modified Barth’s solution containing [mM]: 88 NaCl, 1 KCl, 0.33 Ca(NO3)2, 0.82 MgSO4, 2.4 NaHCO3, 0.41 CaCl2, 5 Tris, 100 U/ml penicillin, 100 µg/ml streptomycin, pH 7.4.
# To express human α7 nAChR, we injected 50 nl of mRNA solution (30 ng mRNA) per oocyte, using the Roboinject and the corresponding software (version 1.2.1; Multi Channel Systems MCS). […]
# The baseline correction of voltage-clamp oocyte recordings was performed with the Roboocyte2 + software (version 1.4.3; Multi Channel Systems MCS, Germany). The maximal current influx and further analysis were executed in scripts written in R. In the antagonist experiments with oocytes, the maximal inward current was determined for the last response of each period (control, three antagonist concentrations, and washout).
# T1 sequence (P43681 27-627): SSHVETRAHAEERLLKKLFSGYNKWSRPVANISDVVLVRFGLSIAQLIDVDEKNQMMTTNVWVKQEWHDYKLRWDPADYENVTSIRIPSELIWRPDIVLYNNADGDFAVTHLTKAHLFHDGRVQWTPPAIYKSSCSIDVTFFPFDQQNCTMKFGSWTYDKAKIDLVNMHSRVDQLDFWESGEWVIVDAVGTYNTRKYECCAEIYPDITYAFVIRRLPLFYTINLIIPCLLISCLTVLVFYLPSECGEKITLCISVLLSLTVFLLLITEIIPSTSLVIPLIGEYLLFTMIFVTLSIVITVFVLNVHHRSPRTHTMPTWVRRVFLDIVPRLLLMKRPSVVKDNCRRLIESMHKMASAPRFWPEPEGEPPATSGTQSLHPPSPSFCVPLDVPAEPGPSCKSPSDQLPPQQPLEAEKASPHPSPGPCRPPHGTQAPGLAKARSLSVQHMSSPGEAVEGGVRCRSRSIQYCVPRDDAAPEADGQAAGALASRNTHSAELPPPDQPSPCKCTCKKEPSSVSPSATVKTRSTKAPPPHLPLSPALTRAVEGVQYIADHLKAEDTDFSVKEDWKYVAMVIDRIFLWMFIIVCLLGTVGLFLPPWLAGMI
# T1 sequence (P30926 22-498): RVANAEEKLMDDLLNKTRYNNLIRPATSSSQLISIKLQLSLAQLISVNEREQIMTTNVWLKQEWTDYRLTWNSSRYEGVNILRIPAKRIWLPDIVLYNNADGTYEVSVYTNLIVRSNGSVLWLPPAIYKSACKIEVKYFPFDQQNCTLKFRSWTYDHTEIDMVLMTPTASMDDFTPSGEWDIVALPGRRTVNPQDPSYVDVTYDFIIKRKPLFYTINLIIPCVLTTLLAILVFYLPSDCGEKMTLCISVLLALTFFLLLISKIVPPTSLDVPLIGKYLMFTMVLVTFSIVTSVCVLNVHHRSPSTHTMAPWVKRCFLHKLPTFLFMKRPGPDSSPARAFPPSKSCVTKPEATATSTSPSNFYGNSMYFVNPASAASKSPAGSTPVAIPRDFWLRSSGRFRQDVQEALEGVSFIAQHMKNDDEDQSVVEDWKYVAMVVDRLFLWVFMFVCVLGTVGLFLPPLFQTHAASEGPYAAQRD
smiles,measurement,setting,value
"NC1=NCCN1Cc1ccc(Cl)nc1 [DN-IMI, desnitro-imidacloprid]",LD50,mice,6 to 24 mg/kg
same,estimated maximum,human α4β4 nAChR; normalized to nicotine (100 µM),~ 0.97
same,EC50,human α4β4 nAChR; read-out: relative pEC50 (inward current amplitude) (converted),3.16 µM
